Earlier results in patent US4294824A, “Extracts of the hemopoietic system” (priority 1975, dated 1981).

conditions: lists continue in the following blocks

SMILES	SOME SIDE EFFECTS AND MAJOR TOXICITY
CC[C@]1(O)C[C@H]2CN(CCc3c([nH]c4ccccc34)[C@@](C(=O)OC)(c3cc4c(cc3OC)N(C=O)[C@H]3[C@@](O)(C(=O)OC)[C@H](OC(C)=O)[C@]5(CC)C=CCN6CC[C@]43[C@@H]65)C2)C1 [VINCRISTINE, vincristine]	Peripheral neuropathy, adynamic ileus, myopathy
COc1cccc2c1C(=O)c1c(O)c3c(c(O)c1C2=O)C[C@@](O)(C(C)=O)C[C@@H]3O[C@H]1C[C@H](N)[C@H](O)[C@H](C)O1 [DAUNORUBICIN, daunorubicin]	Myelosuppression, leucopenia, anaemia
O=P1(N(CCCl)CCCl)NCCCO1 (centres unmarked) [CYCLOPHOSPHAMIDE, cyclophosphamide]	Leucopenia, anorexia, nausea, vomiting. diarrhoea
Nc1ccn([C@@H]2O[C@H](CO)[C@@H](O)[C@@H]2O)c(=O)n1 [CYTOSINE ARABINOSIDE, cystosine arabinoside]	Myelosuppression, bone marrow depression, nausea
CN(Cc1cnc2nc(N)nc(N)c2n1)c1ccc(C(=O)N[C@@H](CCC(=O)O)C(=O)O)cc1 [METHOTREXATE, methotrexate]	Myelosuppression, bone marrow depression, leucopenia
